Measurements reported in patent US7288573B2, “Method of repelling insects” (priority 2001, dated 2007).
Several values for one entry are separate records, joined by “and”; a condition that tells them apart may be missing. Equal entries are not always repeated. Entries after “also recorded” stand apart in the source; their conditions may differ.

Columns and labels:
Aedes albopictus = test: One-minute biting counts on treated forearm (Example 7); assay type: in vivo
Description: This experiment was performed to evaluate the comparative repellency of 5% and 20% 2-undecanone in ethanol, 20% 2-tridecanone in isopropanol and Off!™ 14.25% DEET Insect Repellent aerosol against Aedes albopictus (Asian tiger mosquitoes) and Culex quinquefasciatus (southern house mosquitoes).
Three to four-day-old laboratory-reared female Ae. albopictus and Cx. quinquefasciatus were transferred by aspiration into eight cages measuring 10 inches high×10 inches wide×13 inches deep at a targeted stocking rate of 100 and 200, respectively. Four cages contained Ae. albopictus and four contained Cx. quinquefasciatus. A greater number of Cx. quinquefasciatus was used to compensate for lower biting activity anticipated for this species. The actual number of females per cage was lower than the target-stocking rate because of the high number of males that were inadvertently introduced into the cages. Each cage contained a screened back wall, clear Plexiglas top, stockinette entry sleeve and solid aluminum floor and sidewalls. The mosquitoes were fed water and sugar water prior to and between tests. The tests were conducted over four days, Aug. 7-10, 2001, with four men participating as testers. All testers washed both arms with a non-fragrance soap, rinsed and swabbed with 25% ethanol prior to applying treatments. Treatments were applied to the forearm in a region extending from the wrist to a point measured at 12″ back from the tip of the index finger on both arms. The 20% 2-tridecanone was not applied as uniformly as the other repellents because an insufficient quantity was available. Latex gloves were worn over the hands and replaced before each biting count. The control consisted of a soap wash, rinse and 25% ethanol swab and was conducted by the same person throughout the study. One-minute biting counts were recorded at 0, 1, 2, 4 & 6 hours post-treatment time intervals. All treatments were randomly assigned to each tester, two treatments per tester. Cage placement was also randomized at the beginning of each day of testing. Testers were rotated each day so that by the end of the study they had occupied each cage location. Each repellent was tested two times by three testers so that mean biting counts were based on six observations. A Hobo datalogger was used to monitor temperature and humidity throughout the study.
A balanced incomplete block design following American Society for Testing and Materials standards E 939-94 was employed. Data were normalized by square root transformation and submitted to analysis of variance and mean separation procedures via SS PC. Microsoft Excel 2000 pivot tables and charting functions were used to plot mean biting counts and standard errors by species and time interval for each treatment and control. Mean biting counts were transformed to percent protection or repellency by the following formula: Control−Treatment/Control×100.

Culex spp. = test: Mosquito repellency of 2-undecanone and 2-tridecanone, treated arm in cage (Example 6); assay type: in vivo; conditions: for No. landings: single replicates; for observed repellent / residual activity (words): observed up to 24 hours post-treatment
Excerpt: Cages. The same two mosquitoes cages described in Example 5 were used for this example. The cages were constructed using wood framing and fine mesh wire screen. The dimensions of each cage were 59 cm high×55 cm wide by 59 cm deep. A hinged access door was installed at the front of each chamber for insertion of the water-filled containers filled with mosquito pupae. Also present at the front of each chamber was a 9 cm diameter plastic tube (i.d.) for insertion of the arm of the investigator. The arm insertion tube was sealed with a rubber stopper when not in use.
Mosquitoes and Mosquito Rearing. Mosquitoes (Culex spp.) were obtained (as pupae and larvae) from Carolina Biological Supply Co., Burlington, N.C., USA in two successive shipments, so as to provide a continuing long term supply of fresh insects. Following their arrival, the mosquitoes were divided into approximately equal numbers in multiple water-filled containers and placed in the two cages described above. The larval and pupal cultures were fed with insect rearing compound. In addition, the water was changed regularly by filtration to minimize contamination and prevent overcrowding. Continuous culturing made it possible to increase the mosquito numbers to more than 100 insects per cage.
Test Compounds and Testing Schedule. Testing was done with two compounds, 2-undecanone, and 2-tridecanone, for repellent activity by treating one arm of the investigator with approximately 1 ml of the test solution. Following several minutes for solvent evaporation, the treated arm was inserted through the insertion tube for 5 minutes. The other arm was treated with isoprbpanol (control) or a different concentration of the compound, and inserted into the insertion tube of the adjacent chamber. Next, the behavior of the mosquitoes in response to the presence of the investigator's arms was noted. Mosquito behavior was recorded as 1) landing or attempting to land on the investigator's arm, or coming to rest on the wire screen immediately adjacent to the investigator's arm or hand, versus 2) dispersal away from the treated arm towards the opposite ends of the cage. The approximate number of mosquitoes present at the beginning of the observations was noted. For treatments with 2-undecanone, observations were made initially to confirm 100% repellent activity of the compound immediately after treatment but observations were not recorded. Recording of efficacy was delayed until 6 hours after treatment, and then repeated at 12 and 24 hours post-treatment. For treatment with 2-tridecanone, the observations commenced immediately after solvent drying; then, the observations were repeated (without re-treatment of the investigator's hand and arm) after 6 hours, 12 hours and 24 hours. Treatments were alternated between the different cages. […]
2-tridecanone was obtained as a solid. To prepare this compound for testing, it was subjected to gentle heating in a 37° C. water bath to liquefy it, and aliquots of the stock were diluted volume: volume with isopropanol to 50% concentration and 20% concentration. Sufficient pure compound was retained for direct application (undiluted).
Tests were done at concentrations of 100%, 50%, and 20% for each of the two compounds, as well as 20% DEET, and the isopropanol control.
Table 3 presents the efficacy found at the different time intervals for each of the compounds at the three different concentrations and for DEET. Efficacy was calculated according to the formula: [(no. landings/no. present in control)−(no. landings/no. present in experinental) divided by (no. landings/no. present in control)]×100.

[1] = 20% concentration, 6 hours after treatment
[2] = 20% concentration, 12 hours after treatment
[3] = 20% concentration, 24 hours after treatment
[4] = 50% concentration, 6 hours after treatment
[5] = 50% concentration, 6 hours after treatment, listed as IBI-246
[6] = 50% concentration, 12 hours after treatment
[7] = 50% concentration, 12 hours after treatment, listed as IBI-246
[8] = 50% concentration, 24 hours after treatment
[9] = 50% concentration, 24 hours after treatment, listed as IBI-246
[10] = 100% concentration, 6 hours after treatment
[11] = 100% concentration, 12 hours after treatment
[12] = 100% concentration, 24 hours after treatment

CCCCCCCCCC(C)=O [2-undecanone]
mean biting count, mean separation test versus the 20% formulations (Aedes albopictus; 5% formulation): significantly (p=0.05) lower mean biting count than the other two formulations
repellency (Aedes albopictus; 5% formulation, initial value): 100%
repellency (Aedes albopictus; 5% formulation, value to which repellency diminished): upper 60 percentile
repellency (Aedes albopictus; 20% formulations, post-treatment time intervals): low repellency
performance during the first biting count (Aedes albopictus; Off! 14.25% DEET, 5% 2-undecanone): worked well
Percent Efficacy Post-Treatment (Culex spp.; 20% concentration, 0 hours): 100%
Percent Efficacy Post-Treatment (Culex spp.; 20% concentration, 6 hours): 46.6%
No. landings, Mean (Culex spp.; [1]): 0.7
Percent = [(No. landings/No. present)] × 100 (Culex spp.; [1]): 2.5%
Percent = [(No. landings/No. present)] × 100 (Culex spp.; 20% concentration, 6 hours after treatment, listed as 2-Undecanone): 7.1%
No. landings (Culex spp.; [1]): 0 (2×) and 2
Percent Efficacy Post-Treatment (Culex spp.; 20% concentration, 12 hours): 0%
No. landings, Mean (Culex spp.; [2]): 5.0
Percent = [(No. landings/No. present)] × 100 (Culex spp.; [2]): 17.1%
Percent = [(No. landings/No. present)] × 100 (Culex spp.; 20% concentration, 12 hours after treatment, listed as 2-Undecanone): 17.1%
No. landings (Culex spp.; [2]): 5 and 6 and 4
Percent Efficacy Post-Treatment (Culex spp.; 20% concentration, 24 hours): 0%
No. landings, Mean (Culex spp.; [3]): 4.0
Percent = [(No. landings/No. present)] × 100 (Culex spp.; [3]): 13.4%
Percent = [(No. landings/No. present)] × 100 (Culex spp.; 20% concentration, 24 hours after treatment, listed as 2-Undecanone): 13.8%
No. landings (Culex spp.; [3]): 4
Percent Efficacy Post-Treatment (Culex spp.; 50% concentration, 0 hours): 100%
Percent Efficacy Post-Treatment (Culex spp.; 50% concentration, 6 hours): 83.5%
No. landings, Mean (Culex spp.; [4]): 1.3
Percent = [(No. landings/No. present)] × 100 (Culex spp.; [4]): 1.1%
Percent = [(No. landings/No. present)] × 100 (Culex spp.; [5]): 2.2%
No. landings (Culex spp.; [5]): 0 (3×) and 1 and 3 and 4
Percent Efficacy Post-Treatment (Culex spp.; 50% concentration, 12 hours): 65.3%
No. landings, Mean (Culex spp.; [6]): 7.2
Percent = [(No. landings/No. present)] × 100 (Culex spp.; [6]): 5.8%
Percent = [(No. landings/No. present)] × 100 (Culex spp.; [7]): 5.8%
No. landings (Culex spp.; [7]): 1 and 2 (2×) and 13 (2×) and 12
Percent Efficacy Post-Treatment (Culex spp.; 50% concentration, 24 hours): 56.5%
No. landings, Mean (Culex spp.; [8]): 7.5
Percent = [(No. landings/No. present)] × 100 (Culex spp.; [8]): 5.7%
Percent = [(No. landings/No. present)] × 100 (Culex spp.; [9]): 5.7%
No. landings (Culex spp.; [9]): 3 and 2 (2×) and 11 (2×) and 16
Percent Efficacy Post-Treatment (Culex spp.; 100% concentration, 0 hours): 100%
Percent Efficacy Post-Treatment (Culex spp.; 100% concentration, 6 hours): 100%
No. landings, Mean (Culex spp.; [10]): 0
Percent = [(No. landings/No. present)] × 100 (Culex spp.; [10]): 0%
No. landings (Culex spp.; [10]): 0
Percent Efficacy Post-Treatment (Culex spp.; 100% concentration, 12 hours): 48.5%
No. landings, Mean (Culex spp.; [11]): 1.7
Percent = [(No. landings/No. present)] × 100 (Culex spp.; [11]): 8.6%
Percent = [(No. landings/No. present)] × 100 (Culex spp.; 100% concentration, 12 hours after treatment, listed as 2-Undecanone): 8.6%
No. landings (Culex spp.; [11]): 3 and 1 (2×)
Percent Efficacy Post-Treatment (Culex spp.; 100% concentration, 24 hours): 0%
No. landings, Mean (Culex spp.; [12]): 3.0
Percent = [(No. landings/No. present)] × 100 (Culex spp.; [12]): 19.1%
No. landings (Culex spp.; [12]): 3
observed repellent / residual activity (words) (Culex spp.; 100% concentration): absent after 24 hours post-treatment
observed repellent / residual activity (words) (Culex spp.; 100% concentration, listed as 2-Undecanone): Comments: Strong avoidance response was still evident at 6 hours. Avoidance was much; also recorded: weaker after 12 hours and no obvious avoidance, no dispersal away from the treated
overall repellent activity, comparison of the two compounds (Culex spp.; 100%, 50% and 20% concentrations, 0 to 24 hours): greatest activity overall
